Assay results from ChEMBL document CHEMBL4270488, “Antibacterial Compounds from Marine Bacteria, 2010-2015” (J Nat Prod, 2017).
≈ marks a conversion by molar mass, not a printed value. *1 amine or outer side, *2 acyl side, *3 side chain or, on linkers, in order; H or OH if unused. Where a SMILES comes first, the peptide text is derived from it. Bridges are numbered along the chain shown (N, C = ends). Roman numbers before positions name the chains, in order. [ ]: non-standard residue; d: D form. Actinocin(1to9) = Cc1c2oc3c(C)ccc(C(=O)[*:2])c3nc-2c(C(=O)[*:1])c(N)c1=O; NMeV = CN[C@H](C(=O)O)C(C)C; Sar = CNCC(=O)O

How the values were obtained:
[1] = Inhibition of Staphylococcus aureus RNA polymerase
[2] = Inhibition of Escherichia coli RNA polymerase
Escherichia coli [3] = assay: Antibacterial activity against drug-resistant Escherichia coli by broth microdilution method; type: functional
Staphylococcus aureus [4] = assay: Antibacterial activity against Staphylococcus aureus ATCC 25925 by broth microdilution method; type: functional
Staphylococcus aureus [5] = assay: Antibacterial activity against drug-resistant Staphylococcus aureus by broth microdilution method; type: functional
Pseudomonas aeruginosa [6] = assay: Antibacterial activity against Pseudomonas aeruginosa ATCC 25916 by broth microdilution method; type: functional
Bacillus subtilis [7] = assay: Antibacterial activity against Bacillus subtilis ATCC 63501 by broth microdilution method; type: functional
Escherichia coli [8] = assay: Antibacterial activity against Escherichia coli ATCC 25922 by broth microdilution method; type: functional
Bacillus subtilis [9] = assay: Antibacterial activity against Bacillus subtilis DSM 347 incubated for 5 hrs by resazurin dye reduction based assay; type: functional, organism-based; conditions: DSM 347, 5 h
[10] = test system: Staphylococcus epidermidis; assay: Antibacterial activity against Staphylococcus epidermidis DSM 20044 incubated for 5 hrs by resazurin dye reduction based assay; type: functional, organism-based; conditions: DSM 20044, 5 h
Enterococcus faecium [11] = assay: Antibacterial activity against Enterococcus faecium CCUG 37832 incubated for 18 hrs by WST1 assay; type: functional; conditions: CCUG 37832, 18 h
Enterococcus faecium [12] = assay: Antibacterial activity against Enterococcus faecium CTC 492 incubated for 18 hrs by WST1 assay; type: functional; conditions: CTC 492, 18 h
Staphylococcus aureus [13] = assay: Antibacterial activity against Staphylococcus aureus UST950701-005 measured after overnight incubation by microdilution method; type: functional
[14] = test system: Staphylococcus haemolyticus; assay: Antibacterial activity against Staphylococcus haemolyticus UST950701-004 measured after overnight incubation by microdilution method; type: functional
Bacillus subtilis [15] = assay: Antibacterial activity against Bacillus subtilis 769 measured after overnight incubation by microdilution method; type: functional
Staphylococcus aureus [16] = assay: Antibacterial activity against methicillin-resistant Staphylococcus aureus ATCC 43300 measured after overnight incubation by microdilution method; type: functional
Staphylococcus aureus [17] = assay: Antibacterial activity against methicillin-resistant Staphylococcus aureus; type: functional
Escherichia coli [18] = assay: Antibacterial activity against Escherichia coli; type: functional
Bacillus subtilis [19] = assay: Antibacterial activity against Bacillus subtilis CMCC63501; type: functional
Staphylococcus aureus [20] = assay: Antibacterial activity against Staphylococcus aureus ATCC 29213; type: functional
Bacillus subtilis [21] = assay: Antibacterial activity against Bacillus subtilis ATCC […] incubated for 16 hrs; type: functional
[22] = test system: Mycobacterium tuberculosis; assay: Antibacterial activity against Mycobacterium tuberculosis H37Rv ATCC 27294 incubated […]; type: functional
[23] = Antibacterial activity Bacillus pumilus against by broth dilution assay; type: functional
Pseudomonas aeruginosa [24] = assay: Antibacterial activity against Pseudomonas aeruginosa by broth dilution assay; type: functional
[25] = test system: Mycobacterium tuberculosis; assay: Antibacterial activity against Mycobacterium tuberculosis H37Rv ATCC 27294 incubated for 10 days by GFP based fluorescence assay; type: functional; conditions: H37Rv ATCC 27294, 240 h

Structure (SMILES): CC[C@H](C)[C@H]1NC(=O)[C@@H](NC(=O)[C@H](C)[C@H](O)C(C)C)[C@@H](C)OC(=O)[C@H]2NC(=O)[C@@H](C(C)C)NC(=O)[C@@H](Cc3ccccc3)N(C)C(=O)[C@@H](NC1=O)c1ccc(cc1)O[C@H](C)[C@@](O)(CCl)/C=C\C(=O)NCC(=O)O2
- IC50 [1]: 200 to 4000 nM
- IC50 [2]: 200 to 2000 nM

Structure (SMILES): C[C@@H]1C/C=C2\SC[C@@H](NC(=O)c3coc(n3)C[C@@H](O)C[C@H](O)/C=C/C=C/CNC2=O)C(=O)O1
- MIC (Escherichia coli [3]): 32 µg/mL (≈ 67 µM)
- MIC (Staphylococcus aureus [4]): 8 to 16 µg/mL (≈ 16.8 to 33.5 µM)
- MIC (Staphylococcus aureus [5]): 8 to 16 µg/mL (≈ 16.8 to 33.5 µM)
- MIC (Pseudomonas aeruginosa [6]): 32 µg/mL (≈ 67 µM)
- MIC (Bacillus subtilis [7]): 8 to 16 µg/mL (≈ 16.8 to 33.5 µM)
- MIC (Escherichia coli [8]): 32 µg/mL (≈ 67 µM)

Structure (SMILES): CCC(C)CCC[C@H](C(=O)OC)[C@@H](O)c1cccc2nc3c(C(=O)O)cccc3nc12 (some centres undefined)
- IC50 (Bacillus subtilis [9]): 9.1 µg/mL (≈ 21.4 µM)
- IC50 [10]: 6.1 µg/mL (≈ 14.4 µM)

Structure (SMILES): [O-][n+]1c2cccc(O)c2[n+]([O-])c2cccc(O)c21
- MIC (Enterococcus faecium [11]): 0.7 µg/mL (≈ 2.87 µM)
- MIC (Enterococcus faecium [12]): 0.35 µg/mL (≈ 1.43 µM)

Structure (SMILES): CCC(C)CCC[C@H](C(=O)OC)[C@@H](O)c1cccc2nc3c(C(=O)OC)cccc3nc12 (some centres undefined)
- IC50 (Bacillus subtilis [9]): 3.6 µg/mL (≈ 8.21 µM)
- IC50 [10]: 3.6 µg/mL (≈ 8.21 µM)

Structure (SMILES): COc1ccc2oc3c4c(c(O)c(O)c3c(=O)c2c1O)CCc1cc2c(c(O)c1-4)C(=O)N1[C@@](C)(CO)C(=O)O[C@@]1(C)C2
- MIC (Staphylococcus aureus [13]): ≤ 1 µg/mL
- MIC [14]: ≤ 1 µg/mL
- MIC (Bacillus subtilis [15]): ≤ 1 µg/mL
- MIC (Staphylococcus aureus [16]): ≤ 1 µg/mL

Structure (SMILES): COc1ccc2oc3c4c(c(O)c(O)c3c(=O)c2c1O)CCc1cc2c(c(O)c1-4)C(=O)N1[C@@](C)(C2)OC(=O)[C@]1(C)CO
- MIC (Staphylococcus aureus [13]): ≤ 1 µg/mL
- MIC [14]: ≤ 1 µg/mL
- MIC (Bacillus subtilis [15]): ≤ 1 µg/mL
- MIC (Staphylococcus aureus [16]): ≤ 1 µg/mL

Structure (SMILES): C/C(=C\C(=O)OCCCCCCCC(=O)Nc1c2sscc-2[nH]c1=O)C[C@@H]1OC[C@H](C[C@@H]2O[C@H]2[C@@H](C)[C@H](C)O)[C@@H](O)[C@H]1O
- MIC (Staphylococcus aureus [17]): ≤ 0.03 µg/mL
- MIC (Escherichia coli [18]): 0.5 µg/mL (≈ 0.78 µM)

Structure (SMILES): COC(=O)N[C@H]1[C@@H](C)O[C@@H](O[C@H]2C/C=C(\C)[C@@H]3C=C[C@@H]4[C@@H](O[C@H]5C[C@@H](O[C@H]6C[C@@H](O)[C@@H](O[C@@H]7C[C@@H](O)[C@@H](OC)[C@H](C)O7)[C@H](C)O6)[C@@H](O)[C@H](C)O5)[C@@H](C)C[C@H](C)[C@H]4[C@]3(C)C(=O)C3=C(O)[C@@]4(C[C@@H](C)C(C=O)=C[C@H]4/C=C/2C)OC3=O)C[C@]1(C)[N+](=O)[O-]
- MIC (Bacillus subtilis [19]): 1.6 to 3.1 µg/mL (≈ 1.35 to 2.62 µM)
- MIC (Staphylococcus aureus [20]): 6.2 to 50 µg/mL (≈ 5.23 to 42.2 µM)

Structure (SMILES): COC(=O)N[C@H]1[C@@H](C)O[C@@H](O[C@H]2C/C=C(\C)[C@@H]3C=C[C@@H]4[C@@H](O[C@H]5C[C@@H](O[C@H]6C[C@@H](O)[C@@H](O[C@@H]7C[C@@H](O)[C@@H](OC)[C@H](C)O7)[C@H](C)O6)[C@@H](O)[C@H](C)O5)[C@@H](C)C[C@H](C)[C@H]4[C@]3(C)C(=O)C3=C(O)[C@@]4(C[C@@H](C)C(CO)=C[C@H]4/C=C/2C)OC3=O)C[C@]1(C)[N+](=O)[O-]
- MIC (Bacillus subtilis [21]): 1.5 to 12 µg/mL (≈ 1.26 to 10.1 µM)
- MIC (Bacillus subtilis [19]): 1.6 to 3.1 µg/mL (≈ 1.35 to 2.61 µM)
- MIC [22]: 16 to 32 µg/mL (≈ 13.5 to 27 µM)

Structure (SMILES): CCn1cc(C(=O)O)c(=O)c2ccc(C)nc21 [NALIDIXIC ACID]
- MIC [23]: 1250 to 1500 µg/mL (≈ 5380 to 6460 µM)
- MIC (Pseudomonas aeruginosa [24]): 1250 to 1500 µg/mL (≈ 5380 to 6460 µM)

Structure (SMILES): Cc1c2oc3c(C)ccc(C(=O)N[C@@H]4C(=O)N[C@H](C(C)C)C(=O)N5CCC[C@H]5C(=O)N(C)CC(=O)N(C)[C@@H](C(C)C)C(=O)O[C@@H]4C)c3nc-2c(C(=O)N[C@@H]2C(=O)N[C@H](C(C)C)C(=O)N3CCC[C@H]3C(=O)N(C)CC(=O)N(C)[C@@H](C(C)C)C(=O)O[C@@H]2C)c(N)c1=O [DACTINOMYCIN] (I: T[dV]P[Sar][NMeV] / II: T[dV]P[Sar][NMeV]; ester I:1-I:C, II:1-II:C; linker I:N-II:N via Actinocin(1to9))
- MIC [25]: 1 to 8 µg/mL (≈ 0.797 to 6.37 µM)

Structure (SMILES): COC(=O)N[C@H]1[C@@H](C)O[C@@H](O[C@H]2C/C=C(\C)[C@@H]3C=C[C@@H]4[C@@H](O[C@H]5C[C@@H](O[C@H]6C[C@@H](O)[C@@H](O[C@@H]7C[C@@H](O)[C@@H](OC)[C@H](C)O7)[C@H](C)O6)[C@@H](O)[C@H](C)O5)[C@@H](C)C[C@H](C)[C@H]4[C@]3(C)C(=O)C3=C(O)[C@@]4(C[C@@H](C)C(CO)=C[C@H]4/C=C/2C)OC3=O)C[C@]1(C)N
- MIC (Bacillus subtilis [21]): 1.5 to 12 µg/mL (≈ 1.3 to 10.4 µM)
- MIC [22]: 16 to 32 µg/mL (≈ 13.8 to 27.6 µM)
